In patent US11312724B2 (ASCENTAGE PHARMA (SUZHOU) CO., LTD., priority 2021, dated 2022):

Tests used:
NCI-H358 cell = test: Cell proliferation assay (Celltiter-Glo), NCI-H358; assay type: cell-based; settings: Homo sapiens, NCI-H358, 72 h, 3 days
Procedure: (§1) Cell Proliferation Assay:
(§2) NCI-H358 cell and MIA PaCa-2 cell was cultured in RPMI-1640 supplemented with 10% FBS in humidified incubator at 37° C., 5% CO2. To asses the effect of Compounds of the Disclosure on cell proliferation, exponentially growing cells (5000 cells/well) were plated onto 96-well plates. After cell seeding, a representative Compounds of the Disclosure were added to the cell media (in concentrations ranging from 0 to 10 μM, 3/dilution series). After 3 days, 30 μL Celltiter-Glo reagent was added, and the luminescent signal was determined according to supplier's instruction. The dose response curves and IC50 values were generated using Prism.

MIA PaCa-2 cell = test: Cell proliferation assay (Celltiter-Glo), MIA PaCa-2; assay type: cell-based; settings: Homo sapiens, MIA PaCa-2, 72 h, 3 days
Procedure: as §1, §2

SMILES | IC50 (NCI-H358 cell) [nM] | IC50 (MIA PaCa-2 cell) [nM]
C=CC(=O)N1CCN(c2nc(OC[C@@H]3CCCN3C)nc3c2CCC2(C3)CN(C)Cc3ccccc32)C[C@@H]1CC#N (stereo partly drawn) [Cpd. No. 30, 2-((2S)-1-acryloyl-4-(2-methyl-2′-(((S)-1-methylpyrrolidin-2-yl)methoxy)-2,3,5′,8′-tetrahydro-1H,6′H-spiro[isoquinoline-4,7′-quinazolin]-4′-yl)piperazin-2-yl)acetonitrile] | 2060 | 4780
C=CC(=O)N1CCN(c2nc(OC[C@@H]3CCCN3C)nc3c2CCC2(C3)CS(=O)(=O)Cc3ccccc32)C[C@@H]1CC#N (stereo partly drawn) [Cpd. No. 31, 2-((2S)-1-acryloyl-4-(2′-(((S)-1-methylpyrrolidin-2-yl)methoxy)-2,2-dioxido-5′,8′-dihydro-6′H-spiro[isothiochromane-4,7′-quinazolin]-4′-yl)piperazin-2-yl)acetonitrile] | > 10000 | > 10000
C=CC(=O)N1CCN(c2nc(OC[C@@H]3CCCN3C)nc3c2CCC2(COC(C)(C)c4ccccc42)C3)C[C@@H]1CC#N (stereo partly drawn) [Cpd. No. 34, 2-((2S)-1-acryloyl-4-(1,1-dimethyl-2′-(((S)-1-methylpyrrolidin-2-yl)methoxy)-5′,8′-dihydro-6′H-spiro[isochromane-4,7′-quinazolin]-4′-yl)piperazin-2-yl)acetonitrile] | 1350 | 750
C=CC(=O)N1CCN(c2nc(OC[C@@H]3CCCN3C)nc3c2CCC2(C3)CN(C)C(=O)c3ccccc32)C[C@@H]1CC#N (stereo partly drawn) [Cpd. No. 37, 2-((2S)-1-acryloyl-4-(2-methyl-2′-(((S)-1-methylpyrrolidin-2-yl)methoxy)-1-oxo-2,3,5′,8′-tetrahydro-1H,6′H-spiro[isoquinoline-4,7′-quinazolin]-4′-yl)piperazin-2-yl)acetonitrile] | > 10000 | > 10000
C=CC(=O)N1CCN(c2nc(OC[C@@H]3CCCN3C)nc3c2CCC2(C3)CC3(CC3)c3c(F)cccc32)C[C@@H]1CC#N (stereo partly drawn) [Cpd. No. 38, 2-((2S)-1-acryloyl-4-(4′-fluoro-2″-(((S)-1-methylpyrrolidin-2-yl)methoxy)-5″,8″-dihydro-2′H,6″H-dispiro[cyclopropane-1,3′-indene-1′,7″-quinazolin]-4″-yl)piperazin-2-yl)acetonitrile] | 290 | 93
C=CC(=O)N1CCN(c2nc(OC[C@@H]3CCCN3C)nc3c2CCC2(C3)c3cccc(F)c3C3CC32)C[C@@H]1CC#N (stereo partly drawn) [Cpd. No. 39, 2-((2S)-1-acryloyl-4-(2-fluoro-2′-(((S)-1-methylpyrrolidin-2-yl)methoxy)-1a,5′,6a,8′-tetrahydro-1H,6′H-spiro[cyclopropa[a]indene-6,7′-quinazolin]-4′-yl)piperazin-2-yl)acetonitrile] | 670 | 370
COC/C=C/C(=O)N1CCN(c2nc(OC[C@@H]3CCCN3C)nc3c2CCC2(CCc4ccccc42)C3)C[C@@H]1CC#N (stereo partly drawn) [Cpd. No. 40, 2-((2S)-1-((E)-4-methoxybut-2-enoyl)-4-(2′-(((S)-1-methylpyrrolidin-2-yl)methoxy)-2,3,5′,8′-tetrahydro-6′H-spiro[indene-1,7′-quinazolin]-4′-yl)piperazin-2-yl)acetonitrile] | 560 | 440
CN1CCC[C@H]1COc1nc2c(c(N3CCN(C(=O)/C=C/CN4CC(F)C4)[C@@H](CC#N)C3)n1)CCC1(CCc3ccccc31)C2 (stereo partly drawn) [Cpd. No. 41, 2-((2S)-1-((E)-4-(3-fluoroazetidin-1-yl)but-2-enoyl)-4-(2′-(((S)-1-methylpyrrolidin-2-yl)methoxy)-2,3,5′,8′-tetrahydro-6′H-spiro[indene-1,7′-quinazolin]-4′-yl)piperazin-2-yl)acetonitrile] | 320 | 91
C=C(COC)C(=O)N1CCN(c2nc(OC[C@@H]3CCCN3C)nc3c2CCC2(CCc4ccccc42)C3)C[C@@H]1CC#N (stereo partly drawn) [Cpd. No. 42, 2-((2S)-1-(2-(methoxymethyl)acryloyl)-4-(2′-(((S)-1-methylpyrrolidin-2-yl)methoxy)-2,3,5′,8′-tetrahydro-6′H-spiro[indene-1,7′-quinazolin]-4′-yl)piperazin-2-yl)acetonitrile] | 10400 | 5800
C=C(F)C(=O)N1CCN(c2nc(OCC3CCC4CCCN43)nc3c2CC[C@@]2(CCc4c(Cl)cccc42)C3)C[C@@H]1CC#N (stereo partly drawn) [Cpd. No. 52, 2-((2S)-4-((1R)-4-chloro-2′-((hexahydro-1H-pyrrolizin-3-yl)methoxy)-2,3,5′,8′-tetrahydro-6′H-spiro[indene-1,7′-quinazolin]-4′-yl)-1-(2-fluoroacryloyl)piperazin-2-yl)acetonitrile] | 260 | 340

Next, values leading:

IC50 (NCI-H358 cell) [nM] | IC50 (MIA PaCa-2 cell) [nM] | SMILES
83 | 22 | C=CC(=O)N1CCN(c2nc(OC[C@@H]3CCCN3C)nc3c2CCC2(COC(C)c4ccccc42)C3)C[C@@H]1CC#N (stereo partly drawn) [Cpd. No. 32, 2-((2S)-1-acryloyl-4-(1-methyl-2′-(((S)-1-methylpyrrolidin-2-yl)methoxy)-5′,8′-dihydro-6′H-spiro[isochromane-4,7′-quinazolin]-4′-yl)piperazin-2-yl)acetonitrile]
45 | 30 | C=CC(=O)N1CCN(c2nc(OC[C@@H]3CCCN3C)nc3c2CCC2(COC(C(F)(F)F)c4ccccc42)C3)C[C@@H]1CC#N (stereo partly drawn) [Cpd. No. 33, 2-((2S)-1-acryloyl-4-(2′-(((S)-1-methylpyrrolidin-2-yl)methoxy)-1-(trifluoromethyl)-5′,8′-dihydro-6′H-spiro[isochromane-4,7′-quinazolin]-4′-yl)piperazin-2-yl)acetonitrile]
43 | 20 | C=CC(=O)N1CCN(c2nc(OC[C@@H]3CCCN3C)nc3c2CCC2(COC(C)c4c(F)cccc42)C3)C[C@@H]1CC#N (stereo partly drawn) [Cpd. No. 35, 2-((2S)-1-acryloyl-4-(8-fluoro-1-methyl-2′-(((S)-1-methylpyrrolidin-2-yl)methoxy)-5′,8′-dihydro-6′H-spiro[isochromane-4,7′-quinazolin]-4′-yl)piperazin-2-yl)acetonitrile]
260 | 160 | C=C(F)C(=O)N1CCN(c2nc(OC[C@@H]3CCCN3C)nc3c2CCC2(COC(C)c4c(F)cccc42)C3)C[C@@H]1CC#N (stereo partly drawn) [Cpd. No. 36, 2-((2S)-4-(8-fluoro-1-methyl-2′-(((S)-1-methylpyrrolidin-2-yl)methoxy)-5′,8′-dihydro-6′H-spiro[isochromane-4,7′-quinazolin]-4′-yl)-1-(2-fluoroacryloyl)piperazin-2-yl)acetonitrile]
120 | 130 | CN1CCC[C@H]1COc1nc2c(c(N3CCN(C(=O)/C=C/CF)[C@@H](CC#N)C3)n1)CCC1(CCc3ccccc31)C2 (stereo partly drawn) [Cpd. No. 43, 2-((2S)-1-((E)-4-fluorobut-2-enoyl)-4-(2′-(((S)-1-methylpyrrolidin-2-yl)methoxy)-2,3,5′,8′-tetrahydro-6′H-spiro[indene-1,7′-quinazolin]-4′-yl)piperazin-2-yl)acetonitrile]
4.6 | 1.5 | C=CC(=O)N1CCN(c2nc(OCC34CCCN3CCC4)nc3c2CC[C@@]2(CCc4c(Cl)cccc42)C3)C[C@@H]1CC#N [Cpd. No. 44, 2-((S)-1-acryloyl-4-((R)-4-chloro-2′-((tetrahydro-1H-pyrrolizin-7a(5H)-yl)methoxy)-2,3,5′,8′-tetrahydro-6′H-spiro[indene-1,7′-quinazolin]-4′-yl)piperazin-2-yl)acetonitrile]
7.6 | 2.8 | C=C(F)C(=O)N1CCN(c2nc(OCC34CCCN3CCC4)nc3c2CC[C@@]2(CCc4c(Cl)cccc42)C3)C[C@@H]1CC#N [Cpd. No. 45, 2-((S)-4-((R)-4-chloro-2′-((tetrahydro-1H-pyrrolizin-7a(5H)-yl)methoxy)-2,3,5′,8′-tetrahydro-6′H-spiro[indene-1,7′-quinazolin]-4′-yl)-1-(2-fluoroacryloyl)piperazin-2-yl)acetonitrile]
25 | 15 | C=CC(=O)N1CCN(c2nc(OCC3CCC4(CC4)N3C)nc3c2CC[C@@]2(CCc4c(Cl)cccc42)C3)C[C@@H]1CC#N (stereo partly drawn) [Cpd. No. 46, 2-((2S)-1-acryloyl-4-((1R)-4-chloro-2′-((4-methyl-4-azaspiro[2.4]heptan-5-yl)methoxy)-2,3,5′,8′-tetrahydro-6′H-spiro[indene-1,7′-quinazolin]-4′-yl)piperazin-2-yl)acetonitrile]
61 | 60 | C=C(F)C(=O)N1CCN(c2nc(OCC34CCCN3CCC4)nc3c2CCC2(CCc4c(C(F)F)cccc42)C3)C[C@@H]1CC#N (stereo partly drawn) [Cpd. No. 49, 2-((2S)-4-(4-(difluoromethyl)-2′-((tetrahydro-1H-pyrrolizin-7a(5H)-yl)methoxy)-2,3,5′,8′-tetrahydro-6′H-spiro[indene-1,7′-quinazolin]-4′-yl)-1-(2-fluoroacryloyl)piperazin-2-yl)acetonitrile]
1.2 | 2.9 | C=C(F)C(=O)N1CCN(c2nc(OC[C@@]34CCCN3C[C@H](F)C4)nc3c2CC[C@@]2(CCc4c(Cl)cccc42)C3)C[C@@H]1CC#N [Cpd. No. 50, 2-((S)-4-((R)-4-chloro-2′-(((2R,7aS)-2-fluorotetrahydro-1H-pyrrolizin-7a(5H)-yl)methoxy)-2,3,5′,8′-tetrahydro-6′H-spiro[indene-1,7′-quinazolin]-4′-yl)-1-(2-fluoroacryloyl)piperazin-2-yl)acetonitrile]
52 | 110 | C=C(F)C(=O)N1CCN(c2nc(OCC34CCCN3CC(F)(F)C4)nc3c2CC[C@@]2(CCc4c(Cl)cccc42)C3)C[C@@H]1CC#N (stereo partly drawn) [Cpd. No. 51, 2-((2S)-4-((1R)-4-chloro-2′-((2,2-difluorotetrahydro-1H-pyrrolizin-7a(5H)-yl)methoxy)-2,3,5′,8′-tetrahydro-6′H-spiro[indene-1,7′-quinazolin]-4′-yl)-1-(2-fluoroacryloyl)piperazin-2-yl)acetonitrile]
